Assay results taken from publication PMC3792642 (Acta Crystallographica Section D: Biological Crystallography, 2013).
Peptide text beside a SMILES is read from it.

System: MtbDsbA catalytic Cys89 to Ala mutant
Format: binding, Mycobacterium tuberculosis H37Rv
Settings: ITC, under the conditions tested

CC(=O)N[C@@H](Cc1ccc(O)cc1)C(=O)N[C@H](C(=O)N1CCC[C@H]1C(=O)N[C@@H](CO)C(=O)N[C@@H](CS)C(=O)N[C@@H](CC(N)=O)C(=O)N[C@H](C(N)=O)C(C)C)C(C)C [YVPSCNV] (Ac-YVPSCNV-NH2)
Binding of VKOR peptide to the MtbDsbA catalytic Cys89 to Ala mutant: abolished binding
